# Data from patent US9351955B2, “Compounds and pharmaceutical compositions thereof for the treatment of cystic fibrosis” (Galapagos NV, priority 2013, dated 2016).
# Where “and” joins values, the source holds several entries; their conditions need not be identical. Equal values may be shown once.
# What was measured:
# [1] = target: T1, CFTR ΔF508 (Homo sapiens, UniProt P13569, DEL508-508); assay: TECC assay, primary bronchial epithelial cells from CF patients homozygous for CFTR ΔF508; format: cell-based; settings: for ΔIsc / Current increase: TECC assay; for Current increase: difference between ΔIsc with compound and ΔIsc DMSO (baseline); for EC50: primary bronchial epithelial cells, CFTR ΔF508, several values in a cell = repeat determinations
# T1 construct: host or cells: primary bronchial epithelial cells from CF patients homozygous for ΔF508, pre-treated with VX809
# [2] = target: T2, CFTR ΔF508 mutant (Homo sapiens, UniProt P13569, DEL508-508); assay: YFP-halide influx assay for the CFTR-ΔF508 mutation (384 well, CFBE41o- cells, FDSS/μCell); format: cell-based; settings: forskolin 10.67 μM, fluorescence after 36 seconds, read-out: EC50 measured by YFP-halide influx assay for the CFTR-ΔF508
# T2 construct: expressed in transfected cells; host or cells: CFBE41o- (adenoviral transduction)
# In short: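 CFBE41o- cells were adenovirally transduced with ΔF508 CFTR and the YFP H148Q/I152L reporter. Cells were then held 24 h at 27 °C or treated 24 h at 37 °C with a CFTR modulator. Iodide-induced quench was recorded for 2 min, and EC50 was derived from 1−F/F0 at 36 s against compound concentration.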
# T1 sequence (P13569 with tags, fused parts or gaps DEL508-508): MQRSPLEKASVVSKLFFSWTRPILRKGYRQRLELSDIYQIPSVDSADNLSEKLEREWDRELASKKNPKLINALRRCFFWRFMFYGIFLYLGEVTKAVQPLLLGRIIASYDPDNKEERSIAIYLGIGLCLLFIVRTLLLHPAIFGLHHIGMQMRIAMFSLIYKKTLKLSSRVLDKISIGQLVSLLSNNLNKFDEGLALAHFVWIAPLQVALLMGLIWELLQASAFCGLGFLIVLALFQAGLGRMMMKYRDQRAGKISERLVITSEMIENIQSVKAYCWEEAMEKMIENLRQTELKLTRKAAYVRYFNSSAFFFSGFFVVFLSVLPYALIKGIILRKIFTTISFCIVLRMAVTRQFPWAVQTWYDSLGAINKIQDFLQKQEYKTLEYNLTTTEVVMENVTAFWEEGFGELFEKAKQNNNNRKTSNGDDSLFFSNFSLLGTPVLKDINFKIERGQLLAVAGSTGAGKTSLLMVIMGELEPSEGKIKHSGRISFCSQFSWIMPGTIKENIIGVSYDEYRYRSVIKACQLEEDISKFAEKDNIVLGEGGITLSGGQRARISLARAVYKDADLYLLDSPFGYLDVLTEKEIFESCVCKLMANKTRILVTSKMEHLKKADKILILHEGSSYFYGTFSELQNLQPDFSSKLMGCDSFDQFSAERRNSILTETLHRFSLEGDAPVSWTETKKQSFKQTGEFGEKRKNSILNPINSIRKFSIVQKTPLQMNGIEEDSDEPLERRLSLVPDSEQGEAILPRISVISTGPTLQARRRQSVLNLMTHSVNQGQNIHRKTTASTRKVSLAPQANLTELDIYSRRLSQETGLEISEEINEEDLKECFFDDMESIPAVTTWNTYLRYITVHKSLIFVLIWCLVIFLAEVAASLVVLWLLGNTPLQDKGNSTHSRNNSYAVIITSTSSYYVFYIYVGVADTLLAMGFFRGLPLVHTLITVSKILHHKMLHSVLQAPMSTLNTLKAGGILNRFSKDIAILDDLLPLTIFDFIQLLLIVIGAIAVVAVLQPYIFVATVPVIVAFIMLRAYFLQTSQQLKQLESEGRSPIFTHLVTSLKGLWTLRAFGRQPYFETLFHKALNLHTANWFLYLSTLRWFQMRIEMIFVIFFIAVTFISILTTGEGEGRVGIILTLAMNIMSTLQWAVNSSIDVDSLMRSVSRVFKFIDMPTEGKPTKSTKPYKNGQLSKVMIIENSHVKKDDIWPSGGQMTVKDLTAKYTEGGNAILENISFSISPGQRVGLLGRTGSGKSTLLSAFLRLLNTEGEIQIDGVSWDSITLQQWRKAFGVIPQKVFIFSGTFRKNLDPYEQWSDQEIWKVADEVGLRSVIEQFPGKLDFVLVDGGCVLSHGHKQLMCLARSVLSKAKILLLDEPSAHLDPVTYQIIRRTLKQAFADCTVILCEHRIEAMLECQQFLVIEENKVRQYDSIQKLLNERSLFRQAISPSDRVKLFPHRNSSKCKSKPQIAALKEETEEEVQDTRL
# T2 sequence (P13569 with tags, fused parts or gaps DEL508-508): as above
ΔIsc ([1]; compound at 50 nM (Table XV)),ΔIsc ([1]; compound at 50 nM (Table XVI)),Current increase ([1]; compound at 50 nM),ΔIsc ([1]; compound at 100 nM (Table XVI)),ΔIsc ([1]; compound at 200 nM (Table XVI)),ΔIsc ([1]; compound at 3 μM),Current increase ([1]; compound at 3 μM),"activity on the CFTR protein in TECC assay (ΔISC vs DMSO baseline) ([1]; at 3 μM, or 50 nM, or 50/100/200 nM)",EC50 [1],EC50 [2],Structure (SMILES)
4.5996 μA/cm^2,4.5996 μA/cm^2,4.9244 μA/cm^2,4.9327 μA/cm^2,5.0457 μA/cm^2,10.9207 μA/cm^2,11.6634 μA/cm^2,shows an activity,37 nM,3.4 nM,"CC1(C)Cc2c(sc(NC(=O)c3ccn[nH]3)c2C(N)=O)C(C)(C)O1 [Compound 2, N-(3-carbamoyl-5,5,7,7-tetramethyl-5,7-dihydro-4H-thieno[2,3-c]pyran-2-yl)-1H-pyrazole-5-carboxamide]"
,,,,,4.6728 μA/cm^2,5.1939 μA/cm^2,,,22.6 nM,"CC1(C)Cc2c(sc(NC(=O)C3(O)CC3)c2C(N)=O)C(C)(C)O1 [Compound 4, 2-(1-hydroxycyclopropanecarboxamido)-5,5,7,7-tetramethyl-5,7-dihydro-4H-thieno[2,3-c]pyran-3-carboxamide]"
,,,,,3.9356 μA/cm^2,4.4567 μA/cm^2,,,74.6 nM,"CC1(C)Cc2c(sc(NC(=O)C(C)(C)CO)c2C(N)=O)C(C)(C)O1 [Compound 10, 2-(3-hydroxy-2,2-dimethylpropanamido)-5,5,7,7-tetramethyl-5,7-dihydro-4H-thieno[2,3-c]pyran-3-carboxamide]"
,,,,,,,,237 nM and 65 nM,15.1 nM,"CC1(C)Cc2c(sc(NC(=O)C3(CO)CC3)c2C(N)=O)C(C)(C)O1 [Compound 9, 2-(1-(hydroxymethyl)cyclopropanecarboxamido)-5,5,7,7-tetramethyl-5,7-dihydro-4H-thieno[2,3-c]pyran-3-carboxamide]"
